PubChem BioAssay (NCI)
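Five compound concentrations were applied to cells in 96-well plates for 48 hours; endpoints were derived by simple linear interpolation of the resulting dose-response curve. The concentration for 50% growth inhibition is given as GI50. The concentration for full growth arrest is given as TGI.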

tested on: SK-MEL-5 melanoma; test: NCI anticancer screen, dose series, 48 h

| Structure (SMILES) | TGI | GI50 |
| --- | --- | --- |
| Cc1ccc(SCC(CSCCO)OCn2cnc3c2NC(N)=NC32OCCO2)cc1 (stereo unspecified) | > 100 µM | – |
| C(/c1ccco1)=c1/nc(-c2ccccc2)n2c1nc1ccccc12 | > 100 µM | – |
| NC(=O)C(c1ccccc1)N1OC2C(=O)N(c3ccccc3)C(=O)C2C1c1c2ccccc2c(Cl)c2ccccc12 (stereo unspecified) | > 100 µM | – |
| CC[C@@]1(C[C@H]2C[C@@]3(C(=O)OC)c4[nH]c5ccccc5c4CCN3C2=O)COC2(CCCCC2)O1 | 41.2 µM | – |
| O=S1(=O)NC(=NCc2c[nH]c3ccccc23)N(c2ccccc2)c2ccncc21 | > 100 µM | – |
| CC(C)CCCCCCCCCCCCC(=O)NCC(=O)NC1C(C)OC(Nc2ncnc3c2ncn3C)C(O)C1O (stereo unspecified) | > 100 µM | – |
| COc1ccc(CNc2nc(NCc3ccc(OC)c(OC)c3)nc(NC3CCCCC3)n2)cc1 | 7.41 µM | – |
| C[C@@]12C[C@@H](c3ccccc3O1)N1CCCCSC1=N2 | > 100 µM | – |
| CCOC(=O)Nn1c(C)nnc1-c1ccccc1 | > 100 µM | – |
| Cc1cn(C2CC(n3cc(Cn4cc(I)c(=O)[nH]c4=O)nn3)C(CO)O2)c(=O)[nH]c1=O (stereo unspecified) | > 100 µM | – |
| c1ccc(N=C2SC3=Nc4cccc5cccc(c45)N3C2=Nc2ccccc2)cc1 | > 100 µM | – |
| O=C1CCC(=O)N1n1c(Cc2ccccc2)n[nH]c1=O | > 100 µM | – |
| Oc1cc2c3c(c1)c1cc4c(cc1c[n+]3CC2)OCO4 | > 100 µM | – |
| Cc1cn(C2CC(N(O)C(N)=O)C(CO)O2)c(=O)[nH]c1=O (stereo unspecified) | > 100 µM | – |
| O=C1CCC23CC(C=CC=C12)n1c(=O)n(-c2ccccc2)c(=O)n13 (stereo unspecified) | > 100 µM | – |
| CC(=O)NC1=C(NCCC(C)C)C(=O)c2ccccc2C1=O | > 50 µM | – |
| O=C(O)c1cccc2c1/C(=N/Nc1ccccc1)CC2 | > 100 µM | – |
| O=C(Cc1cccs1)N[C@@H]1C(=O)N2C(C(=O)OC(c3ccccc3)c3ccccc3)=C(CO)CS[C@H]12 | > 100 µM | – |
| CC1=C(C)[C@@]2(C)O[C@@]2(C)O[C@@]2(C)O[C@@]12C | > 100 µM | – |
| O=C([O-])CC(=O)[O-].O=C([O-])CC(=O)[O-].[K+].[Pd+2] | > 100 µM | > 100 µM |

tested on: U251 CNS; test: NCI anticancer screen, dose series, 48 h

| Structure (SMILES) | TGI | GI50 |
| --- | --- | --- |
| O=c1[nH][nH]c(=O)n1Cc1ccccc1Cn1c(=O)[nH][nH]c1=O | > 100 µM | – |
| CC1C=C(CCCCCCCCCCCC[C@@H](O)[C@@H]2CC[C@@H]([C@@H]3CC[C@@H](C(O)CCCCCCCCCCCCC4=C[C@H](C)OC4=O)O3)O2)C(=O)O1 (stereo partly specified) | > 100 µM | – |
| CCNC(=S)N/N=C/c1cc([N+](=O)[O-])ccc1O | > 100 µM | – |
| COc1cc([C@@H]2OCC3C(c4ccc5c(c4)OCO5)OCC32)cc(OC)c1OC (stereo partly specified) | > 100 µM | – |
| CCOC(=O)c1c2ccccc2n2c(N)c(C(N)=O)nnc12 | 55.2 µM | – |
| Cc1cc(N(CCC#N)CCC#N)ccc1/C(N=Nc1ccc(Cl)cc1)=N\NC(=O)c1ccccc1 | > 100 µM | – |
| CC[C@@]1(O)C(=O)OCc2c1cc1n(c2=O)Cc2c-1nc1ccccc1c2/C=N\NC(=O)CN | > 61.5 µM | – |
| CCc1ccc(CCN2CCCCC2)nc1 | > 100 µM | – |
| CNC(=O)C(C)C1CCC2(C)C=CC(=O)C(C)=C2C1O (stereo unspecified) | > 64.9 µM | – |
| O=C(NNC(=O)c1ccccc1SSc1ccccc1C(=O)NNC(=O)c1ccccc1S)c1ccccc1S | > 71.9 µM | – |
| CCOC(=O)C(NC(C)=O)(Nc1ccc(F)cc1)C(F)(F)F (stereo unspecified) | > 100 µM | – |
| CCOc1cc2c(cc1O)/C(=N\OC)C[C@@H]1[C@@H]2CC[C@]2(C)[C@@H](O)CC[C@@H]12 | 22.8 µM | – |
| O=C1/C(=C/c2ccc(O)cc2)CC/C1=C\c1ccc(O)cc1 | > 100 µM | – |
| CC(C)C1/C(=N/O)CC(c2ccccc2)N(N=O)C1c1ccccc1 (stereo unspecified) | > 100 µM | – |
| COC(=O)[C@H](Cc1c[nH]c2ccccc12)NP(=O)(O)OCC1C=CC(n2cc(C)c(=O)[nH]c2=O)O1 (stereo partly specified) | > 100 µM | – |
| COc1cc(/C=C2\S/C(=N/Nc3nc(-c4ccc(Br)cc4)cs3)NC2=O)cc(OC)c1OC | 16.3 µM | – |
| COC(=O)[C@H]1CO[C@@H](C(C)(C)C)N1C(=O)N1C=CC(=O)C[C@@H]1C | > 100 µM | – |
| CCCNC1=C2CC(C)CC(OC)[C@@H](O)[C@H](C)/C=C(\C)C(OC(N)=O)C(OC)/C=C\C=C(/C)C(=O)NC(=CC1=O)C2=O (stereo partly specified) | > 100 µM | 29.5 µM |
| C[n+]1c2ccccc2c(/C=N\NS(=O)(=O)c2ccc(O)c(C(=O)O)c2)c2ccccc21 | > 100 µM | – |
| O=C(Nc1ccc(C2=NCCN2)cc1)c1cncc(C(=O)Nc2ccc(C3=NCCN3)cc2)c1 | > 100 µM | – |

| Structure (SMILES) | TGI | GI50 |
| --- | --- | --- |
| Clc1ccc(/C=C/c2nc3ccccc3s2)cc1Cl | > 100 µM | – |
| CCC1(O)CC2CC(=O)OC2C1O (stereo unspecified) | > 100 µM | – |
| Cc1ccc(SCC(CSCCO)OCn2cnc3c2NC(N)=NC32OCCO2)cc1 (stereo unspecified) | > 100 µM | – |
| C(/c1ccco1)=c1/nc(-c2ccccc2)n2c1nc1ccccc12 | > 100 µM | – |
| NC(=O)C(c1ccccc1)N1OC2C(=O)N(c3ccccc3)C(=O)C2C1c1c2ccccc2c(Cl)c2ccccc12 (stereo unspecified) | > 100 µM | – |
| O=S1(=O)NC(=NCc2c[nH]c3ccccc23)N(c2ccccc2)c2ccncc21 | > 100 µM | – |
| CC(C)CCCCCCCCCCCCC(=O)NCC(=O)NC1C(C)OC(Nc2ncnc3c2ncn3C)C(O)C1O (stereo unspecified) | 11.3 µM | – |
| COc1ccc(CNc2nc(NCc3ccc(OC)c(OC)c3)nc(NC3CCCCC3)n2)cc1 | > 100 µM | – |
| C[C@@]12C[C@@H](c3ccccc3O1)N1CCCCSC1=N2 | > 100 µM | – |
| CCOC(=O)Nn1c(C)nnc1-c1ccccc1 | > 100 µM | – |
| Cc1cn(C2CC(n3cc(Cn4cc(I)c(=O)[nH]c4=O)nn3)C(CO)O2)c(=O)[nH]c1=O (stereo unspecified) | > 100 µM | – |
| c1ccc(N=C2SC3=Nc4cccc5cccc(c45)N3C2=Nc2ccccc2)cc1 | > 100 µM | – |
| O=C1CCC(=O)N1n1c(Cc2ccccc2)n[nH]c1=O | > 100 µM | – |
| Cc1cn(C2CC(N(O)C(N)=O)C(CO)O2)c(=O)[nH]c1=O (stereo unspecified) | > 100 µM | – |
| O=C1CCC23CC(C=CC=C12)n1c(=O)n(-c2ccccc2)c(=O)n13 (stereo unspecified) | > 100 µM | – |
| CC(=O)NC1=C(NCCC(C)C)C(=O)c2ccccc2C1=O | > 50 µM | – |
| O=C(O)c1cccc2c1/C(=N/Nc1ccccc1)CC2 | > 100 µM | – |
| O=C(Cc1cccs1)N[C@@H]1C(=O)N2C(C(=O)OC(c3ccccc3)c3ccccc3)=C(CO)CS[C@H]12 | > 100 µM | – |
| CC1=C(C)[C@@]2(C)O[C@@]2(C)O[C@@]2(C)O[C@@]12C | > 100 µM | – |
| O=C([O-])CC(=O)[O-].O=C([O-])CC(=O)[O-].[K+].[Pd+2] | > 100 µM | > 100 µM |

tested on: UACC-257 melanoma; test: NCI anticancer screen, dose series, 48 h

| Structure (SMILES) | TGI | GI50 |
| --- | --- | --- |
| O=c1[nH][nH]c(=O)n1Cc1ccccc1Cn1c(=O)[nH][nH]c1=O | > 100 µM | – |
| CC1C=C(CCCCCCCCCCCC[C@@H](O)[C@@H]2CC[C@@H]([C@@H]3CC[C@@H](C(O)CCCCCCCCCCCCC4=C[C@H](C)OC4=O)O3)O2)C(=O)O1 (stereo partly specified) | > 100 µM | – |
| CCNC(=S)N/N=C/c1cc([N+](=O)[O-])ccc1O | > 100 µM | – |
| CCOC(=O)c1c2ccccc2n2c(N)c(C(N)=O)nnc12 | > 100 µM | – |
| Cc1cc(N(CCC#N)CCC#N)ccc1/C(N=Nc1ccc(Cl)cc1)=N\NC(=O)c1ccccc1 | > 100 µM | – |
| CC[C@@]1(O)C(=O)OCc2c1cc1n(c2=O)Cc2c-1nc1ccccc1c2/C=N\NC(=O)CN | > 60.8 µM | – |
| CCc1ccc(CCN2CCCCC2)nc1 | > 100 µM | – |
| N#CN=C(N(Cc1ccccc1)Cc1ccccc1)N(Cc1ccccc1)Cc1ccccc1 | > 100 µM | – |
| CNC(=O)C(C)C1CCC2(C)C=CC(=O)C(C)=C2C1O (stereo unspecified) | > 100 µM | – |
| O=C(NNC(=O)c1ccccc1SSc1ccccc1C(=O)NNC(=O)c1ccccc1S)c1ccccc1S | > 95.4 µM | – |
| CCOC(=O)C(NC(C)=O)(Nc1ccc(F)cc1)C(F)(F)F (stereo unspecified) | > 100 µM | – |
| CCOc1cc2c(cc1O)/C(=N\OC)C[C@@H]1[C@@H]2CC[C@]2(C)[C@@H](O)CC[C@@H]12 | > 48.1 µM | – |
| O=C1/C(=C/c2ccc(O)cc2)CC/C1=C\c1ccc(O)cc1 | > 100 µM | – |
| CC(C)C1/C(=N/O)CC(c2ccccc2)N(N=O)C1c1ccccc1 (stereo unspecified) | > 100 µM | – |
| CC1(C)N=C(/C(Cl)=[N+](/[O-])C(=O)c2ccc(F)cc2)C(C)(C)N1O | 32.3 µM | – |
| COc1cc(/C=C2\S/C(=N/Nc3nc(-c4ccc(Br)cc4)cs3)NC2=O)cc(OC)c1OC | 44.9 µM | – |
| COC(=O)[C@H]1CO[C@@H](C(C)(C)C)N1C(=O)N1C=CC(=O)C[C@@H]1C | > 100 µM | – |
| CCCNC1=C2CC(C)CC(OC)[C@@H](O)[C@H](C)/C=C(\C)C(OC(N)=O)C(OC)/C=C\C=C(/C)C(=O)NC(=CC1=O)C2=O (stereo partly specified) | 36.4 µM | 0.318 µM |
| O=C(Nc1ccc(C2=NCCN2)cc1)c1cncc(C(=O)Nc2ccc(C3=NCCN3)cc2)c1 | > 100 µM | – |

| Structure (SMILES) | TGI | GI50 |
| --- | --- | --- |
| Clc1ccc(/C=C/c2nc3ccccc3s2)cc1Cl | > 100 µM | – |
| CCC1(O)CC2CC(=O)OC2C1O (stereo unspecified) | > 100 µM | – |
| Cc1ccc(SCC(CSCCO)OCn2cnc3c2NC(N)=NC32OCCO2)cc1 (stereo unspecified) | > 100 µM | – |
| C(/c1ccco1)=c1/nc(-c2ccccc2)n2c1nc1ccccc12 | > 100 µM | – |
| CC[C@@]1(C[C@H]2C[C@@]3(C(=O)OC)c4[nH]c5ccccc5c4CCN3C2=O)COC2(CCCCC2)O1 | 64.2 µM | – |
| O=S1(=O)NC(=NCc2c[nH]c3ccccc23)N(c2ccccc2)c2ccncc21 | > 100 µM | – |
| CC(C)CCCCCCCCCCCCC(=O)NCC(=O)NC1C(C)OC(Nc2ncnc3c2ncn3C)C(O)C1O (stereo unspecified) | > 100 µM | – |
| COc1ccc(CNc2nc(NCc3ccc(OC)c(OC)c3)nc(NC3CCCCC3)n2)cc1 | > 100 µM | – |
| C[C@@]12C[C@@H](c3ccccc3O1)N1CCCCSC1=N2 | > 100 µM | – |
| CCOC(=O)Nn1c(C)nnc1-c1ccccc1 | > 100 µM | – |
| Cc1cn(C2CC(n3cc(Cn4cc(I)c(=O)[nH]c4=O)nn3)C(CO)O2)c(=O)[nH]c1=O (stereo unspecified) | > 100 µM | – |
| O=C1CCC(=O)N1n1c(Cc2ccccc2)n[nH]c1=O | > 100 µM | – |
| Oc1cc2c3c(c1)c1cc4c(cc1c[n+]3CC2)OCO4 | > 57.4 µM | – |
| O=C1CCC23CC(C=CC=C12)n1c(=O)n(-c2ccccc2)c(=O)n13 (stereo unspecified) | > 100 µM | – |
| CC(=O)NC1=C(NCCC(C)C)C(=O)c2ccccc2C1=O | > 50 µM | – |
| O=C(O)c1cccc2c1/C(=N/Nc1ccccc1)CC2 | > 100 µM | – |
| O=C(Cc1cccs1)N[C@@H]1C(=O)N2C(C(=O)OC(c3ccccc3)c3ccccc3)=C(CO)CS[C@H]12 | > 100 µM | – |
| CC1=C(C)[C@@]2(C)O[C@@]2(C)O[C@@]2(C)O[C@@]12C | > 100 µM | – |
